Results on 15 molecules are retold here after ChEMBL document CHEMBL3124815, “Discovery of a selective kinase inhibitor (TAK-632) targeting pan-RAF inhibition: design, synthesis, and biological evaluation of C-7-substituted 1,3-benzothiazole derivatives” (J Med Chem, 2013).

The target in data set [1] is T1, Serine/threonine-protein kinase B-raf (Homo sapiens, UniProt P15056, V600E). The experiment in a line: Inhibition of BRAF V600E mutant in human HT-29 cells assessed as phosphorylation of MEK. The class given is cell-based.
Data set [2] is filed under the species Homo sapiens. Nature of the data set: Selectivity factor, ratio of IC50 for VEGFR2 (unknown origin) to IC50 for N-terminal FLAG-tagged recombinant BRAF-V600E (unknown origin) expressed in baculovirus system.
For data set [3], the system named is Mus musculus. Nature of the data set: AUC (0 to 8 hrs) in mouse at 10 mg/kg, po. The class given is ADME, organism-based, Blood. Further details: time < 8 hr, dose 10 mg/kg, route oral. The following applies: in vivo.
The target of data set [4] is T2, Vascular endothelial growth factor receptor 2 (Homo sapiens, UniProt P35968). Nature of the data set: Inhibition of VEGFR2 (unknown origin) using biotinylated poly-GluTyr (4:1) as substrate pretreated for 5 mins before substrate addition measured after overnight incubation.
Data set [5] addresses T1, Serine/threonine-protein kinase B-raf. Nature of the data set: Inhibition of N-terminal FLAG-tagged recombinant BRAF V600E mutant (unknown origin) expressed in baculovirus system preincubated for 10 mins before substrate addition measured after 20 mins by scintillation counting.
Data set [6] addresses T2, Vascular endothelial growth factor receptor 2. Nature of the data set: Inhibition of VEGFR2 (unknown origin).
For data set [7], the target named is T1, Serine/threonine-protein kinase B-raf. The experiment in a line: Inhibition of BRAF V600E mutant (unknown origin).

T2 sequence (P35968 whole entry): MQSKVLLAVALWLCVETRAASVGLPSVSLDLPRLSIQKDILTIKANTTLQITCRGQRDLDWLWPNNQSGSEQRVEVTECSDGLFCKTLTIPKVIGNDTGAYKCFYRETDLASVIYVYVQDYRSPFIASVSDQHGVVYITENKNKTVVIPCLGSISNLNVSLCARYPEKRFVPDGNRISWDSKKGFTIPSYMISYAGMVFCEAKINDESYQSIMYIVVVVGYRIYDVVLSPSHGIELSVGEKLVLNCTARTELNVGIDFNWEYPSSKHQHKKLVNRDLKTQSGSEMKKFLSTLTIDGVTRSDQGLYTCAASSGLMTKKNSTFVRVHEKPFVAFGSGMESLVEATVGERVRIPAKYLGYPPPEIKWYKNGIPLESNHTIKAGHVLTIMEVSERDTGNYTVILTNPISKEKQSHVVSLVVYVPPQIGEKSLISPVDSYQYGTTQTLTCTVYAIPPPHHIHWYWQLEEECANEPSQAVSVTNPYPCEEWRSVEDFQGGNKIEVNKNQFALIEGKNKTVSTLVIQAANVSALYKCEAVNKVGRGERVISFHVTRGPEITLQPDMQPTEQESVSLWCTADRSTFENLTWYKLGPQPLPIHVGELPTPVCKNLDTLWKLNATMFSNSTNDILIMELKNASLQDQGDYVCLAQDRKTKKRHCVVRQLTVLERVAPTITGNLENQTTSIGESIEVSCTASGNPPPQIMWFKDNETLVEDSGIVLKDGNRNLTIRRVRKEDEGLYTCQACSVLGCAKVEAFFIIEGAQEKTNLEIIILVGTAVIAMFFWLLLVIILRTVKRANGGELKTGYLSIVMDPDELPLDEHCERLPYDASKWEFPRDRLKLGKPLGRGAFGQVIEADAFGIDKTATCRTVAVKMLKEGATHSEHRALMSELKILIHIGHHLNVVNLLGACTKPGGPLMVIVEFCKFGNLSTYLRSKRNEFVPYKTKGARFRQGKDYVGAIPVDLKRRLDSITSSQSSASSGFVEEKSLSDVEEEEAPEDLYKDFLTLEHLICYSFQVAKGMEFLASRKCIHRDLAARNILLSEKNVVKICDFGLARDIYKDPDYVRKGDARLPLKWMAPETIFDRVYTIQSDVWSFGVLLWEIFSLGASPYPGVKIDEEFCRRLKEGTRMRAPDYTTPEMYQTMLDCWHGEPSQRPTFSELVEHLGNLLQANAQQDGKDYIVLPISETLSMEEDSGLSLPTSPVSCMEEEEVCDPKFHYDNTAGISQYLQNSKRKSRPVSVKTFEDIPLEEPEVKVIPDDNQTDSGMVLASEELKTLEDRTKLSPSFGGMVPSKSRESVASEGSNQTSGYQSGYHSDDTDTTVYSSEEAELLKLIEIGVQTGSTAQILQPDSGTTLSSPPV
T1 sequence (P15056 2-766 V600E limits assumed): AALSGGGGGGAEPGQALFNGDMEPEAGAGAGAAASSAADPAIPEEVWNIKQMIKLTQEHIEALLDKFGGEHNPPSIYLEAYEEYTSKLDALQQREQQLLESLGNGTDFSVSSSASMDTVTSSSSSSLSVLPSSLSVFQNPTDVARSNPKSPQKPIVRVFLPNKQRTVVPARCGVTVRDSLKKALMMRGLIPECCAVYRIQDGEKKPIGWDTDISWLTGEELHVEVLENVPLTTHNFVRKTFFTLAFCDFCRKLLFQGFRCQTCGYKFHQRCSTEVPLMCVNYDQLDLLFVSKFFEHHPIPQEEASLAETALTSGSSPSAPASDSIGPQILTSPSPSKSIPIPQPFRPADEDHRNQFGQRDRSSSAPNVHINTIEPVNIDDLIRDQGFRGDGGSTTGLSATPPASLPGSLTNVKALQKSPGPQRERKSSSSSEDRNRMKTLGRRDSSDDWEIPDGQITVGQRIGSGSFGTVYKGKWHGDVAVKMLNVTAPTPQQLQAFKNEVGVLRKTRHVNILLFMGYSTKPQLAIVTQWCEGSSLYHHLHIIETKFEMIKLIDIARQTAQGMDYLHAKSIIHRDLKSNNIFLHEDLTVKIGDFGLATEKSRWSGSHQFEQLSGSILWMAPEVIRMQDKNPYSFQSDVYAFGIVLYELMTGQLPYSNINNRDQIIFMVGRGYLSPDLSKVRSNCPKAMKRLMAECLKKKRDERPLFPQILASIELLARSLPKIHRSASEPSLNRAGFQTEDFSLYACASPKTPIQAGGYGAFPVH

In the case of `N#Cc1c(Oc2cccc(NC(=O)Nc3ccc(C(F)(F)F)cc3)c2)ccc2nc(NC(=O)C3CC3)sc12`, in data set [1], the 50% inhibitory concentration (IC50) was 110 nM. Further, in data set [2], the Ratio IC50 was found to be 18. Besides, the exposure (AUC) in data set [3] was 431 ng·h/mL.
Taken in the same sequence, the figures for `N#Cc1c(Oc2cccc(NC(=O)Cc3cccc(C(F)(F)F)c3)c2)ccc2nc(NC(=O)C3CC3)sc12` were 360 nM, 120 and 3780 ng·h/mL.
Taken in the same sequence, the figures for `N#Cc1c(Oc2ccc(F)c(NC(=O)Nc3ccc(C(F)(F)F)cc3)c2)ccc2nc(NC(=O)C3CC3)sc12` were 81 nM, 25 and 158 ng·h/mL.
For `N#Cc1c(Oc2cccc(NC(=O)Nc3ccccc3C(F)(F)F)c2)ccc2nc(NC(=O)C3CC3)sc12`, in that order: more than 500 nM, 6.3 and 58 ng·h/mL.
On to `N#Cc1c(Oc2cccc(NC(=O)Cc3ccc(C(F)(F)F)cc3)c2)ccc2nc(NC(=O)C3CC3)sc12`, for which the IC50 in data set [1] turned out to be 320 nM. Besides, the Ratio IC50 in data set [2] amounted to 20. Moreover, the exposure (AUC) in data set [3] worked out at 123 ng·h/mL.
With `CC(C)(C#N)c1cccc(C(=O)Nc2cccc(Oc3ccc4nc(NC(=O)C5CC5)sc4c3CO)c2)c1`, the IC50 in data set [1] was 170 nM. Further, the Ratio IC50 in data set [2] amounted to 0.31.
In the case of `CC(C)(C#N)c1cccc(C(=O)Nc2cccc(Oc3ccc4nc(NC(=O)C5CC5)sc4c3)c2)c1`, in data set [2], the Ratio IC50 worked out at 0.56.
Turning to `N#Cc1c(Oc2cccc(NC(=O)Nc3cccc(C(F)(F)F)c3)c2)ccc2nc(NC(=O)C3CC3)sc12`, the values for the IC50 in data set [1], in data set [4] and in data set [5] were 75 nM, 350 nM and 18 nM, respectively. In addition, the Ratio IC50 in data set [2] was 19. Moreover, the area under the curve (AUC) in data set [3] stood at 99 ng·h/mL.
In the case of `N#Cc1c(Oc2ccc(F)c(NC(=O)Nc3cccc(C(F)(F)F)c3)c2)ccc2nc(NC(=O)C3CC3)sc12`, the 50% inhibitory concentration (IC50) in data set [1] was 22 nM. Also, in data set [2], the Ratio IC50 turned out to be 15.
For `COC(=O)c1c(Oc2cccc(NC(=O)c3cccc(C(C)(C)C#N)c3)c2)ccc2nc(NC(=O)C3CC3)sc12`, in that order: 24 nM and 2.8.
On to `N#CC1(c2cccc(C(=O)Nc3cc(Oc4ccc5nc(NC(=O)C6CC6)sc5n4)ccc3F)c2Cl)CC1`, for which the concentration for half-maximal inhibition (IC50) in data set [6] is 2.8 nM; in data set [7] it was 5.6 nM.
For the molecule `CC(C)(C#N)c1cccc(C(=O)Nc2cccc(Oc3ccc4nc(NC(=O)C5CC5)sc4c3C#N)c2)c1`, the half-inhibitory concentration (IC50) in data set [1] worked out at 34 nM. In addition, in data set [2], the Ratio IC50 was determined as 5.8. The molecule also yielded an AUC in data set [3] of 149 ng·h/mL.
For the molecule `CC(C)(C#N)c1cccc(C(=O)Nc2cccc(Oc3ccc4nc(NC(=O)C5CC5)sc4c3[N+](=O)[O-])c2)c1`, the IC50 in data set [1] was 29 nM. The Ratio IC50 in data set [2] worked out at 2.8.
In the case of `CC(C)(C#N)c1cccc(C(=O)Nc2cccc(Oc3ccc4nc(NC(=O)C5CC5)sc4c3C(=O)O)c2)c1`, in data set [2], the Ratio IC50 was 0.051. For the same molecule, the IC50 in data set [4] came to 15 nM; in data set [5], 290 nM.
Turning to `N#Cc1c(Oc2cccc(NC(=O)Cc3ccccc3C(F)(F)F)c2)ccc2nc(NC(=O)C3CC3)sc12`, the half-maximal inhibitory concentration (IC50) in data set [1] is more than 500 nM. In addition, the Ratio IC50 in data set [2] was 7.1. In data set [3], this molecule yielded an AUC of 255 ng·h/mL.

As a reminder, the IC50 is the midpoint of a concentration-inhibition curve. The AUC is concentration integrated over time. Lower therefore signals low exposure.
